Values quoted from earlier work in patent US20140010903A1, “Curcuminoid composition with enhanced bioavailability and a process for its preparation” (Akay Flavours & Aromatics Pvt Ltd., priority 2012, published 2014).

Which “Toxicity in animal studies” value does the source give for O=C(/C=C/C=C/c1ccc2c(c1)OCO2)N1CCCCC1 [piperine] here?
Its value is “toxic”.
